This note sets out measurements from patent US20250170248A1, “SMARCA DEGRADERS AND USES THEREOF” (Kymera Therapeutics, Inc., priority 2021, published 2025).

Molecules are shown by their SMILES.

Holding throughout (format): cell-based
In experiment [1] the target is T1, SMARCA2 (Homo sapiens, UniProt P51531). Description: MSD SMARCA2 degradation in A549 cell line. As to conditions: for Dmax: A549, A549 cells; for Dmax / DC50: 24 h; for DC50 / SMARCA2 MSD A549 degradation 24 h: Average Dmax %: A549 cells; for DC50: read-out: SMARCA2 MSD A549 degradation 24 h: Average external-Abs DC50. The procedure, abridged:
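SMARCA2 protein remaining after 24 h exposure of A549 cells (top concentration 1000 nM, 3-fold dilutions) was measured by MSD electrochemiluminescence immunoassay of cell lysates. Results are given as binned DC50 and maximal degradation (Dmax) codes.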

A further experiment has as its target T2, SMARCA4 (Homo sapiens, UniProt P51532).
T2 construct: SMARCA2/SMARCA4 protein degradation selectivity in MV4-11 cells; endogenous in cells; host or cells: MV4-11
Description: SMARCA4 Western blot degradation in MV4-11 cells. As to conditions: for Dmax: MV4-11, MV4-11 cells, read-out: SMARCA4 MSD MV411 degradation 24 h: average Dmax %; for Dmax / DC50: 24 h; for DC50 / SMARCA4 MSD MV411 degradation 24 h: average Dmax %: MV4-11 cells; for DC50: read-out: SMARCA4 MSD MV411 degradation 24 h: Mean external-Abs DC50. In a few lines:
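Protein levels quantified by LI-COR Western blot (beta-actin loading control) in RIPA lysates of MV4-11 cells after 24 h compound exposure. Degradation reported as DC50, Dmax % at 24 h and SMARCA2 vs SMARCA4 selectivity, each binned into letter codes.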
A general note: Immunoblotting shows a protein as a band on a membrane.

In experiment [2] the target is T1, SMARCA2. Description: SMARCA2 Western blot degradation in MV4-11 cells. Details: SMARCA2/SMARCA4 protein degradation selectivity in MV4-11 cells; endogenous in cells; host or cells: MV4-11. The note with it: for Dmax: MV4-11, MV4-11 cells, read-out: SMARCA2 MSD MV411 degradation 24 h: average Dmax %; for Dmax / DC50 / SMARCA2 MSD MV411 degradation 24 h: average Dmax %: 24 h; for DC50 / Selectivity in MV411 / SMARCA2 MSD MV411 degradation 24 h: average Dmax %: MV4-11 cells; for DC50: read-out: SMARCA2 MSD MV411 degradation 24 h: Mean external-Abs DC50; for Selectivity in MV411: SMARCA2/4 selectivity.

T1 sequence (P51531 whole entry): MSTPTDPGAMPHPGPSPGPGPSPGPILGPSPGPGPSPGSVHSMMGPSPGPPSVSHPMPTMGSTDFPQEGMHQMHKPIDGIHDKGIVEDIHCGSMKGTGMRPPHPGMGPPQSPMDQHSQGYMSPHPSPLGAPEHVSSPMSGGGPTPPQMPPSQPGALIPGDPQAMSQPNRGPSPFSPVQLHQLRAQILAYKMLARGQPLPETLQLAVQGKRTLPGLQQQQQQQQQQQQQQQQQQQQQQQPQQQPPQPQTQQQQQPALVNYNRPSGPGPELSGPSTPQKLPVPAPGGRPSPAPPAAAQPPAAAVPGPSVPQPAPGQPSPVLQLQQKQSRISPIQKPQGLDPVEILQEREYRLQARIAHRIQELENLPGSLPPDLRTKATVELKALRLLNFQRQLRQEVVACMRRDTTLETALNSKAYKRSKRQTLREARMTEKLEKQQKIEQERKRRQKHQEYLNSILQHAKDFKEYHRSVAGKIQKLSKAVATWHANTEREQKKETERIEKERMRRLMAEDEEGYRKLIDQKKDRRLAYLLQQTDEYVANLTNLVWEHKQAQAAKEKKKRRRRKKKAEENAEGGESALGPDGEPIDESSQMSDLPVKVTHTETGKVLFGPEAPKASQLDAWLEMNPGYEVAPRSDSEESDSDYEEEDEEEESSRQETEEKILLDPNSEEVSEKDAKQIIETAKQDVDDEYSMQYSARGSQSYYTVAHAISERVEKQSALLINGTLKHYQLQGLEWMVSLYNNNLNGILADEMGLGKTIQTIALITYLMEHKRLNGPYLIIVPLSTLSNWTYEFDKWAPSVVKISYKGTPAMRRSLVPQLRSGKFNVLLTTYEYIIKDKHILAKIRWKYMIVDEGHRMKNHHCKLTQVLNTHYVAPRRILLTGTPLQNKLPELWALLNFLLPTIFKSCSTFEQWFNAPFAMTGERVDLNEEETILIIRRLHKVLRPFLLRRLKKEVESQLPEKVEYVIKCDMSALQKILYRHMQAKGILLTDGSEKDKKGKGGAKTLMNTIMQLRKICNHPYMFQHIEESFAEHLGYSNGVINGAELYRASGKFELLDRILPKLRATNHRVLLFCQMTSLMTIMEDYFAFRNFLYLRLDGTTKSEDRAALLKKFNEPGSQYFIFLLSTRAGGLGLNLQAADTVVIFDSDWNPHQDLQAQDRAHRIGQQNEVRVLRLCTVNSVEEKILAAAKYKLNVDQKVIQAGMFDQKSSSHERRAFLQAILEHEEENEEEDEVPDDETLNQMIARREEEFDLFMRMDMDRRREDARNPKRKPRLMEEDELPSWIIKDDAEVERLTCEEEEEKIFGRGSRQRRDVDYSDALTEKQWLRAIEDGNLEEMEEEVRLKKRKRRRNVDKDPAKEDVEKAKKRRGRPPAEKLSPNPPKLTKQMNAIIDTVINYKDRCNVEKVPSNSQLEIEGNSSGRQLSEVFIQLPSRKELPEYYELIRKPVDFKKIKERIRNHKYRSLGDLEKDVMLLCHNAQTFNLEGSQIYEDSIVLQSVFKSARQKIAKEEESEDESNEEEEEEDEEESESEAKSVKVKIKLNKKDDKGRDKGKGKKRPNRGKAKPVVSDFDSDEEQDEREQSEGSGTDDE
T2 sequence (P51532 whole entry): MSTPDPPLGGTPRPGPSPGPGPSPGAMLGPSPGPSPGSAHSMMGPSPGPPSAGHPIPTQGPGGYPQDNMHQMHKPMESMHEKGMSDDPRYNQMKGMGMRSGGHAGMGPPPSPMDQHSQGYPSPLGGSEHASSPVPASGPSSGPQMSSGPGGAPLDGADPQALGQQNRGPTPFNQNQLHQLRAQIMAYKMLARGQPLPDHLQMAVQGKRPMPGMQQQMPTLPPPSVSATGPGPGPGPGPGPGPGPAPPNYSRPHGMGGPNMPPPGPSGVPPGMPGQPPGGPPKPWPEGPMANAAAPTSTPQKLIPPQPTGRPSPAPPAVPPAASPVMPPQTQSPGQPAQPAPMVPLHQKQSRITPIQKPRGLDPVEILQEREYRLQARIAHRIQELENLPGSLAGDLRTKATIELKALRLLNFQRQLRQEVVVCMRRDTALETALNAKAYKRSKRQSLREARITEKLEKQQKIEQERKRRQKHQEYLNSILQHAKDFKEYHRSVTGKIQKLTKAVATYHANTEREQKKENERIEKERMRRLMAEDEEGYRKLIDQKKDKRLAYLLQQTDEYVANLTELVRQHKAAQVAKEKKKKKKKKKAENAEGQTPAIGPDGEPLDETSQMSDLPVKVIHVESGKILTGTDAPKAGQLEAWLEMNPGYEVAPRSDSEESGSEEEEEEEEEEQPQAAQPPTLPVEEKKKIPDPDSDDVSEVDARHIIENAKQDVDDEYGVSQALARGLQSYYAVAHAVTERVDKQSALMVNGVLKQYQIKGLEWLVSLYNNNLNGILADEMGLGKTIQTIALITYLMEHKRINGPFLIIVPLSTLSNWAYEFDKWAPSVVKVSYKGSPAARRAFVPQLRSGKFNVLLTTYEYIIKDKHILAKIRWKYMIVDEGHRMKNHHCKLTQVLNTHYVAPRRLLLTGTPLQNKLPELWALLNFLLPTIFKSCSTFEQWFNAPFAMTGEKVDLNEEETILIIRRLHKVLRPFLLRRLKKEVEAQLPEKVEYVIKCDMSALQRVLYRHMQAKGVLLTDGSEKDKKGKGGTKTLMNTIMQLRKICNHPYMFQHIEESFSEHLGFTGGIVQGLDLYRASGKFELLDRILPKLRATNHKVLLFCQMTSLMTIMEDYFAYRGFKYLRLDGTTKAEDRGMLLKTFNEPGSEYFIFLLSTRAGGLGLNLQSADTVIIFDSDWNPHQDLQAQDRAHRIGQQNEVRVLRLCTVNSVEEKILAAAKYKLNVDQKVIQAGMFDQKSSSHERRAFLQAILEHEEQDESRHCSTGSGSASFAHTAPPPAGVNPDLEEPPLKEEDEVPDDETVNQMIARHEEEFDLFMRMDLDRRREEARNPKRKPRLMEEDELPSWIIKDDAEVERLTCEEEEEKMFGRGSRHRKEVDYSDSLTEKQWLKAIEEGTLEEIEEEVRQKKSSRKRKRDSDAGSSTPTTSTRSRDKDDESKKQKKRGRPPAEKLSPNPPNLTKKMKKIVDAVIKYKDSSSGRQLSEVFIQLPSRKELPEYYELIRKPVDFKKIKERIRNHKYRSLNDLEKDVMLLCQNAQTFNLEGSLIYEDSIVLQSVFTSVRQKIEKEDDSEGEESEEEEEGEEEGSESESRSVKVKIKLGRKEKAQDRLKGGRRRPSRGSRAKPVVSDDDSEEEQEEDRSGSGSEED

The term Dmax denotes the largest share of the target that was removed. Usually DC50 stands for the concentration giving 50% degradation. In the case of `C#Cc1ccc(CNC(=O)[C@@H]2C[C@@H](O)CN2C(=O)[C@@H](N(CCOC)C(=O)N2CC3(CC(N4CCC(c5cnc(N6CCc7[nH]c8nnc(-c9ccccc9O)cc8c7[C@H]6C)nc5)CC4)C3)C2)C(C)(C)C)cc1` [I-140], at SMARCA2 [1], the Dmax was less than 50% and the 50% degradation concentration (DC50) was greater than 100 nM. Also, at SMARCA4, the Dmax was less than 50% and the DC50 was greater than 100 nM. Besides, on SMARCA2 [2], the Dmax is less than 50%, the DC50 was greater than 100 nM and the “Selectivity in MV411” value is listed as “C (C (10-100 fold))”.
In the case of `C#Cc1ccc(CNC(=O)[C@@H]2C[C@@H](O)CN2C(=O)[C@@H](NC(=O)[C@H]2CCC3(CC2)C[C@H](N2CCC(c4ccc(N5CCN6c7cc(-c8ccccc8O)nnc7NC[C@H]6C5)nc4)CC2)C3)C(C)(C)C)cc1` (single isomer, unassigned) [I-156], at SMARCA2 [1], the “SMARCA2 MSD A549 degradation 24 h: Average Dmax %” value was “A (A (>90% degradation))” and the DC50 fell in the range of 10 to 50 nM. Moreover, on SMARCA4, the “SMARCA4 MSD MV411 degradation 24 h: average Dmax %” value is reported as “B (B (>70-90% degradation))” and the DC50 lay in the range of 10 to 100 nM. Moreover, at SMARCA2 [2], the “SMARCA2 MSD MV411 degradation 24 h: average Dmax %” value was “B (B (>70-90% degradation))”, the DC50 lay in the range of 1 to 10 nM and the “Selectivity in MV411” value is “C (C (10-100 fold))”.
Turning to `C#Cc1ccc(CNC(=O)[C@@H]2C[C@@H](O)CN2C(=O)[C@@H](NC(=O)N2CCN(C3CC4(CCN(c5cnc(N6CCN7c8cc(-c9ccccc9O)nnc8NC[C@H]7C6)nc5)CC4)C3)CC2)C(C)(C)C)cc1` [I-284], the Dmax at SMARCA2 [1] was greater than 90%; on SMARCA4 it was 50 to 70%; at SMARCA2 [2], greater than 90%. Besides, the values for the 50% degradation concentration (DC50) at SMARCA2 [1], at SMARCA4 and on SMARCA2 [2] were 10 to 50 nM, greater than 100 nM and 1 to 10 nM, respectively. Further, the “Selectivity in MV411” value at SMARCA2 [2] is listed as “C (C (10-100 fold))”.
Regarding `C#Cc1ccc(CNC(=O)[C@@H]2C[C@@H](O)CN2C(=O)[C@@H](NC(=O)C2CC3(C2)CN(c2cnc(N4CCC(N5CCN6c7cc(-c8ccccc8O)nnc7NC[C@H]6C5)CC4)cn2)C3)C(C)(C)C)cc1` [I-320], at SMARCA2 [1], the Dmax was greater than 90% and the DC50 was less than 10 nM. Also, on SMARCA4, the Dmax was greater than 90% and the DC50 lay in the range of 10 to 100 nM. For the same molecule, at SMARCA2 [2], the maximal degradation (Dmax) was greater than 90%, the DC50 fell in the range of 1 to 10 nM and the “Selectivity in MV411” value is reported as “C (C (10-100 fold))”.
Consider `C#Cc1ccc(CNC(=O)[C@@H]2C[C@@H](O)CN2C(=O)C(c2cc(OCCN3CCC(N4CCC(N5CCC(CN6CCN7c8cc(-c9ccccc9O)nnc8NC[C@H]7C6)CC5)CC4)CC3)no2)C(C)C)c(F)c1` (stereo partly drawn) [I-296], for which, on SMARCA2 [1], the Dmax is greater than 90% and the DC50 lay within 50 to 100 nM. Also, on SMARCA4, the Dmax lay in the range of 70 to 90% and the DC50 was 10 to 100 nM. Besides, on SMARCA2 [2], the Dmax was greater than 90%, the DC50 lay in the range of 1 to 10 nM and the “Selectivity in MV411” value was “C (C (10-100 fold))”.
With `Cc1ncsc1-c1ccc(CNC(=O)[C@@H]2C[C@@H](O)CN2C(=O)[C@@H](NC(=O)C2(F)CC2)C(C)(C)C)c(OCCN2CCC(c3cnc(N4CCN5c6cc(-c7ccccc7O)nnc6NC[C@H]5C4)nc3)CC2)c1` (single isomer, unassigned) [I-32], the Dmax on SMARCA2 [1], on SMARCA4 and at SMARCA2 [2] was greater than 90% each time. The values for the DC50 on SMARCA2 [1], at SMARCA4 and on SMARCA2 [2] were less than 10 nM, 1 to 10 nM and less than 1 nM, respectively. For the same molecule, the “Selectivity in MV411” value on SMARCA2 [2] is “C (C (10-100 fold))”.
On to `C#Cc1ccc([C@H](C)NC(=O)[C@@H]2C[C@@H](O)CN2C(=O)[C@@H](NC(=O)[C@H]2CC3(C2)C[C@H](N2CCC(N4CCC(N5CCN6c7cc(-c8ccccc8O)nnc7NC[C@H]6C5)CC4)CC2)C3)C(C)(C)C)cc1` (single isomer, unassigned) [I-213], for which the greatest degradation seen (Dmax) was greater than 90% on SMARCA2 [1], less than 50% on SMARCA4 and 70 to 90% on SMARCA2 [2]. The half-maximal degradation concentration (DC50) is greater than 100 nM at SMARCA2 [1], greater than 100 nM at SMARCA4 and 1 to 10 nM on SMARCA2 [2]. Moreover, the “Selectivity in MV411” value on SMARCA2 [2] was “B (B (>100-500 fold))”.
As for `C#Cc1ccc(CNC(=O)[C@@H]2C[C@@H](O)CN2C(=O)[C@@H](NC(=O)N2CC3(CC(N4CCC(c5cnc(N6CCN7c8cc(-c9ccccc9O)nnc8NC[C@H]7C6)nc5)CC4)C3)C2)C(C)(C)C)cc1` [I-111], at SMARCA2 [1], the Dmax is greater than 90% and the DC50 is less than 10 nM. At SMARCA4, the Dmax was greater than 90% and the DC50 lay within 10 to 100 nM. On SMARCA2 [2], the Dmax is greater than 90%, the 50% degradation concentration (DC50) is less than 1 nM and the “Selectivity in MV411” value is listed as “C (C (10-100 fold))”.
`Cc1ncsc1-c1ccc(CNC(=O)[C@@H]2C[C@@H](O)CN2C(=O)[C@@H](NC(=O)C2(F)CC2)C(C)(C)C)c(O[C@H]2CC[C@@H](N3CCC(N4CCC(c5cnc(N6CCc7[nH]c8nnc(-c9ccccc9O)cc8c7[C@@H]6C)nc5)CC4)CC3)CC2)c1` (single isomer, unassigned) [I-48]: at SMARCA2 [1], the Dmax was 70 to 90% and the DC50 is greater than 100 nM. Further, on SMARCA4, the maximal degradation (Dmax) was greater than 90% and the DC50 is greater than 100 nM. In addition, at SMARCA2 [2], the Dmax was in the range of 50 to 70%, the DC50 was in the range of 10 to 100 nM and the “Selectivity in MV411” value is reported as “C (C (10-100 fold))”.
Take `CC#Cc1ccc(CNC(=O)[C@@H]2C[C@@H](O)CN2C(=O)[C@@H](NC(=O)[C@H]2CCC3(CC2)C[C@H](N2CCC(c4cnc(N5CCN6c7cc(-c8ccccc8O)nnc7NC[C@H]6C5)nc4)CC2)C3)C(C)(C)C)cc1` (single isomer, unassigned) [I-117]: on SMARCA2 [1], the “SMARCA2 MSD A549 degradation 24 h: Average Dmax %” value is reported as “A (A (>90% degradation))” and the DC50 was greater than 100 nM. Also, on SMARCA4, the “SMARCA4 MSD MV411 degradation 24 h: average Dmax %” value is reported as “D (D (<50% degradation))” and the DC50 was greater than 100 nM. Also, on SMARCA2 [2], the “SMARCA2 MSD MV411 degradation 24 h: average Dmax %” value was “C (C (50-70% degradation))”, the DC50 fell in the range of 10 to 100 nM and the “Selectivity in MV411” value is reported as “C (C (10-100 fold))”.
Take `C#Cc1ccc(C2(NC(=O)[C@@H]3C[C@@H](O)CN3C(=O)[C@@H](NC(=O)[C@H]3CC4(C3)C[C@H](N3CCC(N5CCC(N6CCN7c8cc(-c9ccccc9O)nnc8NC[C@H]7C6)CC5)CC3)C4)C(C)(C)C)CC2)cc1` (single isomer, unassigned) [I-211]: at SMARCA2 [1], the Dmax is greater than 90% and the 50% degradation concentration (DC50) was 50 to 100 nM. Further, on SMARCA4, the maximal degradation (Dmax) is less than 50% and the DC50 is greater than 100 nM. Further, at SMARCA2 [2], the Dmax fell in the range of 70 to 90%, the DC50 was 1 to 10 nM and the “Selectivity in MV411” value is recorded as “A (A (>500 fold))”.
In the case of `Cc1ncsc1-c1ccc(CNC(=O)[C@@H]2C[C@@H](O)CN2C(=O)[C@@H](NC(=O)N2CC3(CCC(N4CCC(c5cnc(N6CCc7[nH]c8nnc(-c9ccccc9O)cc8c7C6C)nc5)CC4)CC3)C2)C(C)(C)C)cc1` (stereo partly drawn) [I-62], on SMARCA2 [1], the Dmax lay within 70 to 90% and the DC50 is greater than 100 nM. Also, at SMARCA4, the Dmax is less than 50% and the DC50 is greater than 100 nM. On SMARCA2 [2], the Dmax is less than 50%, the DC50 is greater than 100 nM and the “Selectivity in MV411” value was “C (C (10-100 fold))”.
Turning to `C#Cc1ccc(CNC(=O)[C@@H]2C[C@@H](O)CN2C(=O)[C@@H](NC(=O)N2CCN(C[C@H]3CC[C@H](N4CCC(N5CCN6c7cc(-c8ccccc8O)nnc7NC[C@H]6C5)CC4)CC3)CC2)C(C)(C)C)cc1` [I-254], the Dmax at SMARCA2 [1] is 70 to 90%; on SMARCA4, less than 50%; at SMARCA2 [2], 50 to 70%. In addition, the DC50 at SMARCA2 [1] is 50 to 100 nM; at SMARCA4, greater than 100 nM; on SMARCA2 [2] it was 10 to 100 nM. Besides, at SMARCA2 [2], the “Selectivity in MV411” value is given as “B (B (>100-500 fold))”.
As to `C#Cc1ccc(CNC(=O)[C@@H]2C[C@@H](O)CN2C(=O)[C@@H](NC(=O)C2CCN(C[C@H]3CC[C@H](N4CCc5[nH]c6nnc(-c7ccccc7O)cc6c5[C@H]4C)CC3)CC2)C(C)(C)C)cc1` (single isomer, unassigned) [I-202], on SMARCA2 [1], the Dmax is greater than 90% and the 50% degradation concentration (DC50) is greater than 100 nM. Besides, on SMARCA4, the Dmax fell in the range of 50 to 70% and the DC50 was greater than 100 nM. In addition, at SMARCA2 [2], the Dmax lay within 70 to 90%, the DC50 lay in the range of 1 to 10 nM and the “Selectivity in MV411” value was “C (C (10-100 fold))”.
In the case of `Cc1ncsc1-c1ccc(CNC(=O)[C@@H]2C[C@@H](O)CN2C(=O)[C@@H](NC(=O)C2(F)CC2)C(C)(C)C)c(O[C@H]2CC[C@@H](N3CCC(c4cnc(N5CCc6[nH]c7nnc(-c8ccccc8O)cc7c6[C@H]5C)nc4)CC3)CC2)c1` (single isomer, unassigned) [I-31], on SMARCA2 [1], the maximal degradation (Dmax) is greater than 90% and the half-maximal degradation concentration (DC50) was in the range of 50 to 100 nM. Further, on SMARCA4, the Dmax was in the range of 50 to 70% and the DC50 is greater than 100 nM. For the same molecule, at SMARCA2 [2], the Dmax is 70 to 90%, the DC50 fell in the range of 10 to 100 nM and the “Selectivity in MV411” value is reported as “B (B (>100-500 fold))”.
